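These data come from cells grown in 96-well plates and exposed to compound for 48 hours at five concentrations. The concentration for 50% growth inhibition is given as GI50. TGI is the concentration that stops growth completely.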
What was measured:
Assay in all cases: NCI-60 cell line screen, 48 h
M14 melanoma = test system: M14 melanoma
BT-549 breast = test system: BT-549 breast
ACHN renal = test system: ACHN renal
DU-145 prostate = test system: DU-145 prostate
OVCAR-8 ovarian = test system: OVCAR-8 ovarian
786-0 renal = test system: 786-0 renal
HL-60(TB) leukemia = test system: HL-60(TB) leukemia
COLO 205 colon = test system: COLO 205 colon
PC-3 prostate = test system: PC-3 prostate
HCT-116 colon = test system: HCT-116 colon
CCRF-CEM leukemia = test system: CCRF-CEM leukemia
NCI-H522 lung = test system: NCI-H522 lung
RXF 393 renal = test system: RXF 393 renal
IGROV1 ovarian = test system: IGROV1 ovarian
NCI/ADR-RES ovarian = test system: NCI/ADR-RES ovarian
SW-620 colon = test system: SW-620 colon
NCI-H460 lung = test system: NCI-H460 lung
A498 renal = test system: A498 renal
NCI-H23 lung = test system: NCI-H23 lung
SN12C renal = test system: SN12C renal
HCC-2998 colon = test system: HCC-2998 colon
UACC-62 melanoma = test system: UACC-62 melanoma
U251 CNS = test system: U251 CNS
OVCAR-4 ovarian = test system: OVCAR-4 ovarian
MOLT-4 leukemia = test system: MOLT-4 leukemia
K-562 leukemia = test system: K-562 leukemia
OVCAR-5 ovarian = test system: OVCAR-5 ovarian
SF-295 CNS = test system: SF-295 CNS
UACC-257 melanoma = test system: UACC-257 melanoma
SK-MEL-5 melanoma = test system: SK-MEL-5 melanoma
SNB-75 CNS = test system: SNB-75 CNS
SNB-19 CNS = test system: SNB-19 CNS
EKVX NSCLC = test system: EKVX NSCLC
SK-MEL-28 melanoma = test system: SK-MEL-28 melanoma
SR leukemia = test system: SR leukemia
MCF7 breast = test system: MCF7 breast
MDA-MB-231 breast = test system: MDA-MB-231 breast
KM12 colon = test system: KM12 colon
SF-268 CNS = test system: SF-268 CNS
HCT-15 colon = test system: HCT-15 colon
HOP-92 NSCLC = test system: HOP-92 NSCLC
CAKI-1 renal = test system: CAKI-1 renal
HOP-62 NSCLC = test system: HOP-62 NSCLC
UO-31 renal = test system: UO-31 renal
MDA-MB-435 = test system: MDA-MB-435
RPMI-8226 leukemia = test system: RPMI-8226 leukemia
HS 578T breast = test system: HS 578T breast
SK-MEL-2 melanoma = test system: SK-MEL-2 melanoma
A549 NSCLC = test system: A549 NSCLC
SK-OV-3 ovarian = test system: SK-OV-3 ovarian
TK-10 renal = test system: TK-10 renal
HT29 colon = test system: HT29 colon
NCI-H226 lung = test system: NCI-H226 lung
SF-539 CNS = test system: SF-539 CNS
OVCAR-3 ovarian = test system: OVCAR-3 ovarian
LOX IMVI melanoma = test system: LOX IMVI melanoma

**Q.** Which results are given for `CCN1C(=O)N(CC)C2SC(N/N=C/c3ccccc3)=NC21` (centres undefined)?
**A.** GI50 (M14 melanoma): 234 nM; TGI (M14 melanoma): 4670 nM; GI50 (BT-549 breast): 464 nM; TGI (BT-549 breast): 2300 nM; GI50 (ACHN renal): 943 nM; TGI (ACHN renal): > 100000 nM; GI50 (DU-145 prostate): 441 nM; TGI (DU-145 prostate): > 100000 nM; GI50 (OVCAR-8 ovarian): 473 nM; TGI (OVCAR-8 ovarian): > 100000 nM; GI50 (786-0 renal): 583 nM; TGI (786-0 renal): 44500 nM; GI50 (HL-60(TB) leukemia): 257 nM; TGI (HL-60(TB) leukemia): 932 nM; GI50 (COLO 205 colon): 300 nM; TGI (COLO 205 colon): 945 nM; GI50 (PC-3 prostate): 359 nM; TGI (PC-3 prostate): > 100000 nM; GI50 (HCT-116 colon): 371 nM; TGI (HCT-116 colon): 19800 nM; GI50 (CCRF-CEM leukemia): 342 nM; TGI (CCRF-CEM leukemia): > 100000 nM; GI50 (NCI-H522 lung): 210 nM; TGI (NCI-H522 lung): 735 nM; GI50 (RXF 393 renal): 171 nM; TGI (RXF 393 renal): 503 nM; GI50 (IGROV1 ovarian): 622 nM; TGI (IGROV1 ovarian): > 100000 nM; GI50 (NCI/ADR-RES ovarian): 327 nM; TGI (NCI/ADR-RES ovarian): > 36100 nM; GI50 (SW-620 colon): 394 nM; TGI (SW-620 colon): > 100000 nM; GI50 (NCI-H460 lung): 367 nM; TGI (NCI-H460 lung): > 34200 nM; GI50 (A498 renal): 227 nM; TGI (A498 renal): 785 nM; GI50 (NCI-H23 lung): 474 nM; TGI (NCI-H23 lung): > 100000 nM; GI50 (SN12C renal): 557 nM; TGI (SN12C renal): > 100000 nM; GI50 (HCC-2998 colon): 564 nM; TGI (HCC-2998 colon): 34000 nM; GI50 (UACC-62 melanoma): 390 nM; TGI (UACC-62 melanoma): > 100000 nM; GI50 (U251 CNS): 343 nM; TGI (U251 CNS): > 100000 nM; GI50 (OVCAR-4 ovarian): > 88900 nM; TGI (OVCAR-4 ovarian): > 100000 nM; GI50 (MOLT-4 leukemia): 502 nM; TGI (MOLT-4 leukemia): > 100000 nM; GI50 (K-562 leukemia): 215 nM; TGI (K-562 leukemia): > 100000 nM; GI50 (OVCAR-5 ovarian): 521 nM; TGI (OVCAR-5 ovarian): > 100000 nM; GI50 (SF-295 CNS): 282 nM; TGI (SF-295 CNS): > 71600 nM; TGI (UACC-257 melanoma): > 100000 nM; GI50 (SK-MEL-5 melanoma): 614 nM; TGI (SK-MEL-5 melanoma): 22700 nM; GI50 (SNB-75 CNS): 173 nM; GI50 (SNB-19 CNS): 468 nM; TGI (SNB-19 CNS): > 100000 nM; GI50 (EKVX NSCLC): 583 nM; TGI (EKVX NSCLC): > 100000 nM; GI50 (SK-MEL-28 melanoma): 1680 nM; TGI (SK-MEL-28 melanoma): > 100000 nM; GI50 (SR leukemia): 194 nM; TGI (SR leukemia): > 100000 nM; GI50 (MCF7 breast): 301 nM; TGI (MCF7 breast): > 100000 nM; GI50 (MDA-MB-231 breast): 656 nM; TGI (MDA-MB-231 breast): > 100000 nM; GI50 (KM12 colon): 148 nM; TGI (KM12 colon): > 100000 nM; GI50 (SF-268 CNS): 3410 nM; TGI (SF-268 CNS): > 100000 nM; GI50 (HCT-15 colon): 349 nM; TGI (HCT-15 colon): > 100000 nM; GI50 (HOP-92 NSCLC): 2780 nM; TGI (HOP-92 NSCLC): > 30300 nM; GI50 (CAKI-1 renal): 403 nM; TGI (CAKI-1 renal): > 100000 nM; GI50 (HOP-62 NSCLC): 567 nM; TGI (HOP-62 NSCLC): > 100000 nM; GI50 (UO-31 renal): 718 nM; TGI (UO-31 renal): > 100000 nM; GI50 (MDA-MB-435): 84.8 nM; TGI (MDA-MB-435): 317 nM; GI50 (RPMI-8226 leukemia): 381 nM; TGI (RPMI-8226 leukemia): > 100000 nM; GI50 (HS 578T breast): 312 nM; TGI (HS 578T breast): > 100000 nM; GI50 (SK-MEL-2 melanoma): 317 nM; TGI (SK-MEL-2 melanoma): > 100000 nM; GI50 (A549 NSCLC): 606 nM; TGI (A549 NSCLC): > 100000 nM; GI50 (SK-OV-3 ovarian): 614 nM; TGI (SK-OV-3 ovarian): > 100000 nM; TGI (TK-10 renal): > 100000 nM; GI50 (HT29 colon): 320 nM; TGI (HT29 colon): > 100000 nM; GI50 (NCI-H226 lung): 754 nM; TGI (NCI-H226 lung): > 100000 nM; GI50 (SF-539 CNS): 232 nM; TGI (SF-539 CNS): 683 nM; GI50 (OVCAR-3 ovarian): 395 nM; TGI (OVCAR-3 ovarian): > 100000 nM; GI50 (LOX IMVI melanoma): 572 nM; TGI (LOX IMVI melanoma): > 100000 nM

From PubChem BioAssay (NCI)
